Columns and labels:
Test in all cases: Kinase selectivity profiling
[1] = molecular target: SRC (Homo sapiens, UniProt P12931)
[2] = molecular target: RSK2 (Homo sapiens, UniProt P51812)
[3] = molecular target: Pkca (Homo sapiens, UniProt P17252)
[4] = molecular target: CK2α1/β (Homo sapiens, UniProt P68400)
[5] = molecular target: CK1γ2 (Homo sapiens, UniProt P78368)
[6] = molecular target: PIM3 (Homo sapiens, UniProt Q86V86)
[7] = molecular target: BTK (Homo sapiens, UniProt Q06187)
[8] = molecular target: ALK (Homo sapiens, UniProt Q9UM73)
[9] = molecular target: MAP4K2 (Homo sapiens, UniProt Q12851)
[10] = molecular target: TRKB (Homo sapiens, UniProt Q16620)
[11] = molecular target: MAP2K1 (Homo sapiens, UniProt Q02750)
[12] = molecular target: DDR1 (Homo sapiens, UniProt Q08345)
[13] = molecular target: RET (Homo sapiens, UniProt P07949)
[14] = molecular target: FES (Homo sapiens, UniProt P07332)
[15] = molecular target: CDK5/p25NCK (Homo sapiens, UniProt Q00535)
[16] = molecular target: PIK3CB/PIK3R1 (Homo sapiens, UniProt P42338)
[17] = molecular target: GSK3β (Homo sapiens, UniProt P49841)
[18] = molecular target: CHK1(CHEK1) (Homo sapiens, UniProt O14757)
[19] = molecular target: EPHA5 (Homo sapiens, UniProt P54756)
[20] = molecular target: DYRK3 (Homo sapiens, UniProt O43781)
[21] = molecular target: JNK1 (Homo sapiens, UniProt P45983)
[22] = molecular target: JNK3 (Homo sapiens, UniProt P53779)
[23] = molecular target: SGK2 (Homo sapiens, UniProt Q9HBY8)
[24] = molecular target: RSK3 (Homo sapiens, UniProt Q15349)
Sequence of RSK3 (Q15349 whole entry): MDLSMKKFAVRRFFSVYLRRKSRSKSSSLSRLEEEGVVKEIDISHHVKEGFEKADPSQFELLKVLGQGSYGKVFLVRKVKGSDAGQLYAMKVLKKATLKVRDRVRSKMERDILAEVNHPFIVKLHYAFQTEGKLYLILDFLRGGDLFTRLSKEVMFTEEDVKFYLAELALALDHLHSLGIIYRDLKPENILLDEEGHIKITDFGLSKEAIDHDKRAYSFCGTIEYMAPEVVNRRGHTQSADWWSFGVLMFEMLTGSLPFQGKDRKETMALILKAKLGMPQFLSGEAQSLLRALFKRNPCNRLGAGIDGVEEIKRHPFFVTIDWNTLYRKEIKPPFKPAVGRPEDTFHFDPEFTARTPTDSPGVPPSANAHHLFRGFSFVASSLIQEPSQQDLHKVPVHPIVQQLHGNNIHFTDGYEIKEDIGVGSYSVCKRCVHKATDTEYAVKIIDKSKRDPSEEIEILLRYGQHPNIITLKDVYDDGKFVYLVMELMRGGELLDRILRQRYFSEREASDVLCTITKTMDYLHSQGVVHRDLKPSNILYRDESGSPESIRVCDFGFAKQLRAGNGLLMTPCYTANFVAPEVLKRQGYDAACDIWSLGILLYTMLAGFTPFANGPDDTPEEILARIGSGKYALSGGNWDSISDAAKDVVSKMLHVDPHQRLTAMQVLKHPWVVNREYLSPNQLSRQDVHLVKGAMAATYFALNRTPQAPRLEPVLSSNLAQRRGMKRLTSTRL

[25] = molecular target: CK1γ3 (Homo sapiens, UniProt Q9Y6M4)
Sequence of CK1γ3 (Q9Y6M4 whole entry): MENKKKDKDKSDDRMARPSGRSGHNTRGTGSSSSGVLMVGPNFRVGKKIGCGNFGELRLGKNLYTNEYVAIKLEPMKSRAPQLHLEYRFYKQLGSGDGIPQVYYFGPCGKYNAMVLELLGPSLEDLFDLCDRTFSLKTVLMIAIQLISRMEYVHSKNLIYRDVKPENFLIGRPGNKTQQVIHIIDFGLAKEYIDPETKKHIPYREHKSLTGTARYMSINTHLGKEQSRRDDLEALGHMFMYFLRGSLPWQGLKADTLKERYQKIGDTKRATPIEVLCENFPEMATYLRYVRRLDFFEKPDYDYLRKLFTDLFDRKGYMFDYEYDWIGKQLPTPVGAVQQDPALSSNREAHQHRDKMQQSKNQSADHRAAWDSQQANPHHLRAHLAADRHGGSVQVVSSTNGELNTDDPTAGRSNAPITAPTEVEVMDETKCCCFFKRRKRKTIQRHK

[26] = molecular target: DAPK1 (Homo sapiens, UniProt P53355)
Sequence of DAPK1 (P53355 whole entry): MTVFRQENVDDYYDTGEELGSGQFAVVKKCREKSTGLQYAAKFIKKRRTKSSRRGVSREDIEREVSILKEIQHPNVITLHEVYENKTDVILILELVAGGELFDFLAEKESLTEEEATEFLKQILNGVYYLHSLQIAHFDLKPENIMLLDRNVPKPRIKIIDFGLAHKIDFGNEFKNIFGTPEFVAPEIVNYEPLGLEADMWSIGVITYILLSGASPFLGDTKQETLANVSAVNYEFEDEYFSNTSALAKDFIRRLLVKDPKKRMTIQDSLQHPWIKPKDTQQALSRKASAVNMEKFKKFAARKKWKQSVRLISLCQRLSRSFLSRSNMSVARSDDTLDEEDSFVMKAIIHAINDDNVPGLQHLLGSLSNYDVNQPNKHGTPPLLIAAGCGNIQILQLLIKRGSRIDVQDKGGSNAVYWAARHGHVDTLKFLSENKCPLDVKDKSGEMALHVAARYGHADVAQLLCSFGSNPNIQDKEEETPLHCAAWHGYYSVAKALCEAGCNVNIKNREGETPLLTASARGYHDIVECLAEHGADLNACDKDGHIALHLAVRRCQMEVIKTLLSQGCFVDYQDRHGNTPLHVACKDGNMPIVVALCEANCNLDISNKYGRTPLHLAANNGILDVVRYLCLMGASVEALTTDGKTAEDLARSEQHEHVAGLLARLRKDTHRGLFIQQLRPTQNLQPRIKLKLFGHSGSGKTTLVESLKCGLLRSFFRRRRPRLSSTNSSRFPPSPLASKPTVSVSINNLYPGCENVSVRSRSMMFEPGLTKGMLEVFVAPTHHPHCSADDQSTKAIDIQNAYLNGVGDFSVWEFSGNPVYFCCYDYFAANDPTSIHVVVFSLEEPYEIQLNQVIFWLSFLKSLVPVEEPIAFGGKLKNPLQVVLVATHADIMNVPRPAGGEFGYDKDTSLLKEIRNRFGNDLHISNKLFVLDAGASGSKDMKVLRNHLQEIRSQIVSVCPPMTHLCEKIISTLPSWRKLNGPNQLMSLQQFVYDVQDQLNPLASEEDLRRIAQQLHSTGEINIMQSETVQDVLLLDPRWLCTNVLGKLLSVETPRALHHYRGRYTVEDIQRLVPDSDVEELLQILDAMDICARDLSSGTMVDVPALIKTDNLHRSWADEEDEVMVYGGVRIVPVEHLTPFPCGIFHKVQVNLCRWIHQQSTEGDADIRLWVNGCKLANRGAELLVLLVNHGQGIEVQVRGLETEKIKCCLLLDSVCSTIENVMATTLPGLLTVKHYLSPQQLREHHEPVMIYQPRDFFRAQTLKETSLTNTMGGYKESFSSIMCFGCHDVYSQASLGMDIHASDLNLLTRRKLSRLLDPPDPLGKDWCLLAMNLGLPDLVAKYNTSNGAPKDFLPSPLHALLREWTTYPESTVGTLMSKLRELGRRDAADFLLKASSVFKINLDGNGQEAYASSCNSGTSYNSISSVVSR

[27] = molecular target: DYRK1B (Homo sapiens, UniProt Q9Y463)
[28] = molecular target: MINK (Homo sapiens, UniProt Q8N4C8)
[29] = molecular target: FAK (Homo sapiens, UniProt Q05397)
[30] = molecular target: EGFR (Homo sapiens, UniProt P00533)
[31] = molecular target: KHS (Homo sapiens, UniProt Q9Y4K4)
[32] = molecular target: FLT1 (VEGFR1) (Homo sapiens, UniProt P17948)
[33] = molecular target: PLK2 (Homo sapiens, UniProt Q9NYY3)
[34] = molecular target: FRK (Homo sapiens, UniProt P42685)
[35] = molecular target: PIK3CA/PIK3R1 (Homo sapiens, UniProt P42336)
Sequence of PIK3CA/PIK3R1 (P42336 whole entry): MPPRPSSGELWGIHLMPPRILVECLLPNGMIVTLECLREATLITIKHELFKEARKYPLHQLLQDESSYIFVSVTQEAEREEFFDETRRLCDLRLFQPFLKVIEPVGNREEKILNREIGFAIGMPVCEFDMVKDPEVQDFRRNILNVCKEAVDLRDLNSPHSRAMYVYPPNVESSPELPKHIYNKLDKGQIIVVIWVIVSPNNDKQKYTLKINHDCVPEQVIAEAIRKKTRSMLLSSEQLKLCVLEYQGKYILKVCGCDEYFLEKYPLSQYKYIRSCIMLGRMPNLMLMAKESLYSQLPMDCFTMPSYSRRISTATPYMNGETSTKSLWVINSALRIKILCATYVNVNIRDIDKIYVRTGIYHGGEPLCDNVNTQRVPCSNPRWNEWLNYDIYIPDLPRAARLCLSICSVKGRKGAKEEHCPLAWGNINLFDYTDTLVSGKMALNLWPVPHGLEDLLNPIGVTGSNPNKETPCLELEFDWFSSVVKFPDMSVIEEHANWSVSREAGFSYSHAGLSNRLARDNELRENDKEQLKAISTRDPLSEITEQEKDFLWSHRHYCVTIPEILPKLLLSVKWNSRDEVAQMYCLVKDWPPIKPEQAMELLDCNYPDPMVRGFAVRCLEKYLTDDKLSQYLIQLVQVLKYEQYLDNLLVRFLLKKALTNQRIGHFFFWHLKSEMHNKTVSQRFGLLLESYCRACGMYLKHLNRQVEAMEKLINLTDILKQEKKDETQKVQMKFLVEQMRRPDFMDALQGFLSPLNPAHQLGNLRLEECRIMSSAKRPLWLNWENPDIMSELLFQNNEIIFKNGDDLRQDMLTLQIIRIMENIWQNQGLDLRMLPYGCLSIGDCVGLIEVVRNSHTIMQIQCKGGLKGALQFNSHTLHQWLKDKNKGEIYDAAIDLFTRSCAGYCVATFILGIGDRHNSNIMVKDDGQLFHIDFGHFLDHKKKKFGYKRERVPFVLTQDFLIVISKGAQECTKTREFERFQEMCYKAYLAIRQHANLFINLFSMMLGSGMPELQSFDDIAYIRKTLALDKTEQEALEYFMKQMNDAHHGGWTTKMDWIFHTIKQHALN
Sequence of PIK3CA/PIK3R1 (P27986 whole entry partner): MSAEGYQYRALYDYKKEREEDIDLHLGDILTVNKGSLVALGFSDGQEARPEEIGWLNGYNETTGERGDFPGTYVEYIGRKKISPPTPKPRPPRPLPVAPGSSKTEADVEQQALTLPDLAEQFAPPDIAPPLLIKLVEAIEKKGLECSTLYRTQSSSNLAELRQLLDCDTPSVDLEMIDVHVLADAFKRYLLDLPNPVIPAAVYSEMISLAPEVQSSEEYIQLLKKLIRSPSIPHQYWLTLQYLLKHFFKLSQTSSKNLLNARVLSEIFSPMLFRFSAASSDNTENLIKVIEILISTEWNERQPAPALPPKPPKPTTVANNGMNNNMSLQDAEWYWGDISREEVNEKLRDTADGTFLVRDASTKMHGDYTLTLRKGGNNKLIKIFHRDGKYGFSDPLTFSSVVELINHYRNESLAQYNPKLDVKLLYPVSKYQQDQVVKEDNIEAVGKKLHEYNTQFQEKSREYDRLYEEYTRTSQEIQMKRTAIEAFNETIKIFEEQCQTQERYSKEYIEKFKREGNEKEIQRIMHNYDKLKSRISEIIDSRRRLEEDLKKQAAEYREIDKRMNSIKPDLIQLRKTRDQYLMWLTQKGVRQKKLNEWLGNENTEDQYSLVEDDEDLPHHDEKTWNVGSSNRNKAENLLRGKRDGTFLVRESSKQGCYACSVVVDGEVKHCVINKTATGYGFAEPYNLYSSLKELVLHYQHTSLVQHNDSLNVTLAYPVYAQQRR

[36] = molecular target: HPK1 (Homo sapiens, UniProt Q92918)
[37] = molecular target: MAPKAPK2 (Homo sapiens, UniProt P49137)
[38] = molecular target: FMS (CSF1R) (Homo sapiens, UniProt P07333)
[39] = molecular target: EPHB4 (Homo sapiens, UniProt P54760)
[40] = molecular target: TIE2 (Homo sapiens, UniProt Q02763)
[41] = molecular target: PAK4 (Homo sapiens, UniProt O96013)

SMILES: C=CC(=O)Nc1ccccc1Nc1ncc2c(n1)N(CCCN1CCN(C(=O)C=C)CC1)C(=O)N(c1cc(OC)cc(OC)c1)C2 [CXF-009]
- inhibition at 1 µM [1]: 3.48%
- inhibition at 1 µM [2]: 2.24%
- inhibition at 1 µM [3]: 1.73%
- inhibition at 1 µM [4]: -3.22%
- inhibition at 1 µM [5]: -4.8%
- inhibition at 1 µM [6]: 17.5%
- inhibition at 1 µM [7]: -5.76%
- inhibition at 1 µM [8]: 7.28%
- inhibition at 1 µM [9]: 1.43%
- inhibition at 1 µM [10]: 42.1%
- inhibition at 1 µM [11]: 0.59%
- inhibition at 1 µM [12]: -3.41%
- inhibition at 1 µM [13]: 1.72%
- inhibition at 1 µM [14]: -7.81%
- inhibition at 1 µM [15]: -5.5%
- inhibition at 1 µM [16]: 0.17%
- inhibition at 1 µM [17]: -0.37%
- inhibition at 1 µM [18]: 1.53%
- inhibition at 1 µM [19]: 8.67%
- inhibition at 1 µM [20]: -12%
- inhibition at 1 µM [21]: -4.4%
- inhibition at 1 µM [22]: -3.67%
- inhibition at 1 µM [23]: 0.51%
- inhibition at 1 µM [24]: 7.58%
- inhibition at 1 µM [25]: -7.86%
- inhibition at 1 µM [26]: 2.52%
- inhibition at 1 µM [27]: 0.62%
- inhibition at 1 µM [28]: 16.6%
- inhibition at 1 µM [29]: -0.41%
- inhibition at 1 µM [30]: -16.3%
- inhibition at 1 µM [31]: 4.11%
- inhibition at 1 µM [32]: 5.91%
- inhibition at 1 µM [33]: -19.5%
- inhibition at 1 µM [34]: -0.22%
- inhibition at 1 µM [35]: -35%
- inhibition at 1 µM [36]: -2.36%
- inhibition at 1 µM [37]: 0.15%
- inhibition at 1 µM [38]: 15.4%
- inhibition at 1 µM [39]: -1.86%
- inhibition at 1 µM [40]: -12.8%
- inhibition at 1 µM [41]: 6.5%

Reference: PMC9814781, “Structure-based design of a dual-warhead covalent inhibitor of FGFR4” (Communications Chemistry, 2022)
